Assay results as given in patent EP0097071A1, “Benzhydryl sulfinylacetamide derivatives and their therapeutical use” (LABORATOIRE L. LAFON Société anonyme dite:, priority 1982, dated 1983).

How the values were obtained:
SNC = experiment: Essential activity on the CNS (Tableau I and conclusions of the neuropsychopharmacological study); assay type: in vivo; settings: in vivo
Description: Dans le tableau I ci-après, on a consigné un certain nombre de composés selon la formule I de façon nullement limitative, en mentionnant l'activité essentielle sur le SNC.
Les composés de formule I agissent tous sur le SNC. Les produits des exemples 1-3 et 7-8 sont des agents stimulants, en revanche les produits des exemples 4-6 sont des agents sédatifs.

souris mâle [1] = experiment: Pentobarbital-induced sleep duration; assay type: in vivo
Description: Les composés selon l'invention se distinguent du benzhydrylsulfinylacétamide (CRL 40476) précité par une différence d'action vis-à-vis du sommeil barbiturique. […]. Cette différence d'action qui est intéressante sur le plan thérapeutique est illustrée par le tableau IV

souris mâle [2] = experiment: Toxicity, DL-0; assay type: in vivo; settings: i.p.
Description: (§1) On a résumé ci-après les résultats des essais pharmacologiques qui ont été entrepris avec les produits selon la présente addition. Dans ces essais, les produits de formule I à étudier ont été administrés par voie intrapéritonéale, en suspension dans une solution aqueuse de gomme arabique, sous un volume de 20 ml/kg chez la souris mâle et sous un volume de 5 ml/kg chez le rat mâle.
La toxicité a été étudiée chez la souris mâle. Les résultats relatifs à la DL-0 (dose minimale non mortelle) sont donnés dans le tableau II ci-après.

souris mâles = experiment: Global behaviour and reactivities, mouse; assay type: in vivo; settings: souris
Description: as §1
(§2) Pour apprécier le comportement global et les réactivités, des lots de six animaux (souris mâles ou rats mâles) ont été observés avant administration de chaque produit, puis 15 min, 30 min, 1 h, 2 h, 3 h et 24 h après administration de chaque produit. Les résultats sont consignés dans le tableau III ci-après, […]

rats mâles = experiment: Global behaviour and reactivities, rat; assay type: in vivo; settings: 64 mg/kg i.p.
Description: as §1, §2

souris [3] = experiment: Interaction with apomorphine, mouse; assay type: in vivo
Description: as §1
Des lots de 6 souris par dose reçoivent le CRL 40933 0,5 h avant l'injection sous-cutanée d'apomorphine administrée à la dose de 1 ou 16 mg/kg.

rat = experiment: Interaction with apomorphine, rat; assay type: in vivo; settings: apomorphine 0,5 mg/kg s.c., dose not stated
Description: as §1
Le CRL 40933 est administré à des lots de 6 rats 0,5 h avant l'injection sous-cutanée de 0,5 mg/kg d'apomorphine.

rats = experiment: Interaction with amphetamine (stereotypies); assay type: in vivo; settings: rat; amphétamine 2 mg/kg i.p.; doses used, not stated
Description: as §1
L'amphétamine (2 mg/kg)est injectée par voie intrapéritonéale à des lots de 6 rats, 30 min après l'administration de CRL 40933.

souris [4] = experiment: Interaction with reserpine; assay type: in vivo; settings: 128 mg/kg i.p.
Description: as §1
Quatre heures après l'injection intrapéritonéale de 2,5 mg/kg de réserpine, des lots de 6 souris reçoivent le CRL 40933.

souris [5] = experiment: Interaction with oxotremorine; assay type: in vivo
Description: as §1
Le CRL 40933 est administré à des lots de 6 souris 0,5 h avant l'injection intrapéritonéale de 0,5 mg/kg d'oxotrémorine.

souris [6] = experiment: Four plates test; assay type: in vivo; settings: 0,5 h after administration, dose not stated
Description: as §1
(§3) Les essais sont effectués sur des lots de 10 souris (par dose) 0,5 h après l'administration du CRL 40933.

souris [7] = experiment: Traction test; assay type: in vivo; settings: 0,5 h after administration, dose not stated
Description: as §1, §3

souris [8] = experiment: Electroshock; assay type: in vivo; settings: dose not stated
Description: as §1, §3

souris [9] = experiment: Spontaneous motility (actimeter); assay type: in vivo
Description: as §1
Une demi-heure, après avoir reçu le CRL 40933, les souris (6 par dose, 12 témoins) sont placées en actimètre où leur motilité est enregistrée pendant 30 min.

souris [10] = experiment: Intergroup aggressiveness; assay type: in vivo; settings: for agressivité intergroupes (nombre de combats): dose not stated
Description: as §1
Après avoir séjourné pendant 3 semaines dans chacune des moitiés d'une cage séparées par une cloison opaque, des groupes de 3 souris reçoivent le CRL 40933. 30 min plus tard, les deux groupes d'une même cage sont réunis par retrait de la cloison et on note le nombre de combats qui surviennent en 10 min.

souris [11] = experiment: Motility reduced by habituation to the enclosure; assay type: in vivo
Description: as §1
Après 18 h de séjour dans les actimètres, les souris (6 par dose, 12 témoins) reçoivent le CRL 40933. Elles sont aussitôt replacées dans leurs enceintes respectives et, 30 min plus tard, on enregistre leur motilité pendant 30 min.

souris [12] = experiment: Motility reduced by hypoxic aggression (acute hypobaric anoxia); assay type: in vivo
Description: as §1
Une demi-heure après avoir reçu le CRL 40933, les souris (10 par dose, 20 témoins) sont soumises à une anoxie hypobare aiguë [dépression de 600 mm Hg (soit environ 8 x 10^4 pascals) en 90 s, puis détente de 45 s], puis elles sont placées en actimètre où leur motilité est enregistrée pendant 10 min.

souris [13] = experiment: Asphyxic anoxia (gallamine triethiodide); assay type: in vivo; settings: dose not stated
Description: as §1
Des lots de 10 souris par dose reçoivent le CRL 40933 30 min avant l'administration intrapéritonéale de 32 mg/kg de triiodoéthylate de gallamine.

souris [14] = experiment: Interaction with barbital (sleep); assay type: in vivo
Description: as §1
Une demi-heure après l'administration de CRL 40933, des lots de 10 souris reçoivent une injection intrapéritonéale de 220 mg/kg de barbital.

souris [15] = experiment: Behavioural despair (forced immersion); assay type: in vivo; settings: 32 mg/kg et 128 mg/kg i.p.
Description: as §1
Une demi-heure après avoir reçu le CRL 40933, des lots de 10 souris par dose sont placés dans un espace restreint rempli d'eau sur une hauteur de 6 cm; on note la durée d'immobilité entre la 2e et la 6e minute suivant l'immersion.

Solubility = settings: for solubility: water
[16] = cited from earlier work
[17] = dose 128 mg/kg i.p., 0,5 h before pentobarbital

In the case of CNC(=O)C[S+]([O-])C(c1ccccc1)c1ccccc1 (stereo not drawn) [Exemple 1, N-méthyl-benzhydrylsulfinylacétamide], the “Activité sur le SNC” value (SNC) is reported as “stimulant”, the “conclusion of the neuropsychopharmacological study: main type of CNS effect” value (SNC) is reported as “composante excitante” and the “Action sur la durée du sommeil induit par le pentobarbital (50 mg/kg i.p.) effet” value (souris mâle [1]; [17]) is reported as “(a)”. The DL-O (souris mâle [2]) was “supérieure à 256 mg/kg”, the “Observations (comportement global et réactivités)” value (shortened to “Observations”) (souris mâles; 64 mg/kg i.p.) was “excitation” and the “Observations” value (souris mâles; 128 mg/kg i.p.) was “excitation - hypothermie (-1,5°C) pendant 0,5 h”. The hypothermie (souris mâles; 128 mg/kg i.p.) was -1,5 °C, the “Observations” value (souris mâles; 256 mg/kg i.p.) was “dyspnée, excitation, démarche titu-bante” and the mortalité (souris mâles; 256 mg/kg i.p.) was “pas de mortalité”. The “Observations” value (rats mâles) was “mydriase pendant 3 h”, the “hypothermie induite par l'apomorphine” value (souris [3]; 128 mg/kg i.p.) was “ne s'oppose pas” and the “own effect on temperature” value (souris [3]; 128 mg/kg i.p.) was “hypothermisant”. For the same molecule, the “comportement de verticalisation et stéréotypies (apomorphine)” value (souris [3]; dose not stated) was “ne modifie pas”, the “stéréotypies induites par l'apomorphine” value (rat) was “laisse inchangées” and the “stéréotypies amphétaminiques” value (rats) was “ne modifie pratiquement pas”. The “hypothermie induite par la réserpine” value (souris [4]) was “antagonise”, the “ptôsis réserpinique” value (souris [4]) was “sans modifier” and the “action hypothermisante de l'oxotrémorine” value (souris [5]; 8 mg/kg à 128 mg/kg i.p.) was “s'oppose modérément”. The “signes de stimulation cholinergique périphérique dus à l'oxotrémorine” value (souris [5]; dose not stated) was “laisse pratiquement inchangés”, the “tremblements induits par l'oxotrémorine” value (souris [5]; dose not stated) was “ne modifie pas” and the “nombre de passages punis” value (souris [6]) was “n'entraîne pas d'augmentation”. The “déficit moteur (traction)” value (souris [7]) was “ne provoque pas d'incapacité motrice majeure”, the “effets convulsivants de l'électrochoc” value (souris [8]) was “ne s'oppose pas” and the “motilité spontanée” value (souris [9]; 32 mg/kg et 128 mg/kg i.p.) was “augmentation modérée”. The “agressivité intergroupes (nombre de combats)” value (souris [10]) was “ne modifie pas nettement”, the “activité motrice chez la souris habituée à son enceinte” value (souris [11]; 8 mg/kg, 32 mg/kg et surtout 128 mg/kg i.p.) was “reprise d'activité motrice” and the “récupération motrice après séjour bref dans une enceinte à pression réduite” value (souris [12]; 128 mg/kg i.p.) was “amélioration modérée (mais non significative)”. For the same molecule, the “délai d'apparition des convulsions et de la mort consécutives à une anoxie asphyxique” value (souris [13]) was “ne modifie pas”, the “durée du sommeil barbiturique” value (souris [14]; 32 mg/kg i.p.) was “n'entraîne pas de modifications sensibles” and the “nombre de souris endormies” value (souris [14]; 32 mg/kg i.p.) was “diminution nette”. For the same molecule, the “durée du sommeil barbiturique” value (souris [14]; 128 mg/kg i.p.) was “diminue nettement”, the “durée d'immobilité de la souris placée en immersion forcée” value (souris [15]) was “diminue nettement” and the “solubilité dans l'éther et l'acétate d'éthyle” value (Solubility) was “insoluble”. The “solubilité dans le méthanol, l'éthanol et l'acétoné” value (Solubility) was “soluble” and the solubility (Solubility) was less than 1000 µg/mL.
For NC(=O)C[S+]([O-])C(c1ccccc1)c1ccccc1 (stereo not drawn) [CRL 40476, benzhydrylsulfinylacétamide, reference compound], the “Activité sur le SNC” value (SNC) was “stimulant”, the “Action sur la durée du sommeil induit par le pentobarbital (50 mg/kg i.p.) effet” value (souris mâle [1]; dose de 8 à 256 mg/kg i.p., 0,5 h before pentobarbital) was “(b) (pas de modification significative de la durée du sommeil.)” and the “durée du sommeil barbiturique induit par le pentobarbital” value (souris mâle [1]; pentobarbital 50 mg/kg i.p. 0,5 h after i.p. test product, dose not stated) was “ne modifie pas”. For the same molecule, the “excitation avec hyperréactivité” value ([16]; in vivo) was “présence”, the “potentialisation des effets de l'apomorphine et de l'amphétamine” value ([16]; in vivo) was “absence” and the stéréotypies ([16]; sauf à fortes doses) was “absence”.
For O=C(C[S+]([O-])C(c1ccccc1)c1ccccc1)N1CCCCC1 (stereo not drawn) [Exemple 5, N-(benzhydrylsulfinylacétyl)-pipéridine], the “Activité sur le SNC” value (SNC) was “sédatif”, the “conclusion of the neuropsychopharmacological study: main type of CNS effect” value (SNC) was “type sédatif” and the “Action sur la durée du sommeil induit par le pentobarbital (50 mg/kg i.p.) effet” value (souris mâle [1]; [17]) was “(a)”. The DL-O (souris mâle [2]) was “supérieure à 1024 mg/kg”, the “motilité spontanée” value (souris [9]; all doses used (8 mg/kg à 256 mg/kg), intensity increasing with dose) was “hypomotilité” and the agressivité intergroupes (souris [10]; 32 mg/kg i.p.) was “diminue de moitié”. The “agressivité intergroupes (nombre de combats)” value (souris [10]) was “effet antiagressif”, the “mobilité réduite (habituation à l'enceinte)” value (souris [11]; souris, dose not stated) was “n'agit pas nettement” and the “mobilité réduite (agression hypoxique)” value (souris [12]; dose not stated) was “n'agit pas nettement”. It also gave a solubility (Solubility) of less than 1000 µg/mL.
